Data published in PMC12652692, “Synthesis and In Vitro Anticancer Evaluation of Novel Phosphonium Derivatives of Chrysin” (International Journal of Molecular Sciences, 2025).

How the values were obtained:
Assay in all cases: NCI60 one-dose screen
Type in all cases: cell-based
NCI-H522 = settings: Homo sapiens; NCI-H522, 10 μM; read-out: Growth percent
How it was run: (§1)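 Percent growth is reported relative to untreated control and to the cell number at drug addition, so values below 0 indicate cell killing. It was measured by SRB protein staining after 48 h incubation with 10 µM compound.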

SK-MEL-5 = settings: Homo sapiens; SK-MEL-5, 10 μM; read-out: Growth percent
How it was run: as §1

U251 = settings: Homo sapiens, U-251; U251, 10 μM; read-out: Growth percent
How it was run: as §1

OVCAR-3 = settings: Homo sapiens; OVCAR-3, 10 μM; read-out: Growth percent
How it was run: as §1

SN12C = settings: Homo sapiens, read-out: Growth percent
How it was run: as §1

MCF7 = settings: Homo sapiens; MCF7, 10 μM; read-out: Growth percent
How it was run: as §1

HCT-15 = settings: Homo sapiens; HCT-15, 10 μM; read-out: Growth percent
How it was run: as §1

CCRF-CEM = settings: Homo sapiens, read-out: Growth percent
How it was run: as §1

SNB-19 = settings: Homo sapiens; SNB-19, 10 μM; read-out: Growth percent
How it was run: as §1

OVCAR-8 = settings: Homo sapiens; OVCAR-8, 10 μM; read-out: Growth percent
How it was run: as §1

SNB-75 = settings: Homo sapiens; SNB-75, 10 μM; read-out: Growth percent
How it was run: as §1

NCI-H226 = settings: Homo sapiens; NCI-H226, 10 μM; read-out: Growth percent
How it was run: as §1

MALME-3M = settings: Homo sapiens, read-out: Growth percent
How it was run: as §1

RXF 393 = settings: Homo sapiens; RXF 393, 10 μM; read-out: Growth percent
How it was run: as §1

| SMILES | activity at 10 µM (NCI-H522) [%] | activity at 10 µM (SK-MEL-5) [%] | activity at 10 µM (U251) [%] | activity at 10 µM (OVCAR-3) [%] | activity at 10 µM (SN12C) [%] | activity at 10 µM (MCF7) [%] | activity at 10 µM (HCT-15) [%] | activity at 10 µM (CCRF-CEM) [%] | activity at 10 µM (SNB-19) [%] | activity at 10 µM (OVCAR-8) [%] | activity at 10 µM (SNB-75) [%] | activity at 10 µM (NCI-H226) [%] | activity at 10 µM (MALME-3M) [%] | activity at 10 µM (RXF 393) [%] |
| --- | --- | --- | --- | --- | --- | --- | --- | --- | --- | --- | --- | --- | --- | --- |
| O=c1cc(-c2ccccc2)oc2cc(OCCCC[P+](c3ccccc3)(c3ccccc3)c3ccccc3)cc(O)c12 [3a] | -81.9 | -98.4 | -57.4 | -94 | -49.5 | -79.1 | -94.2 | -75.9 | -44.5 | -61.1 | -80.7 | -29 | -88 |  |
| Cc1ccc([P+](CCCCOc2cc(O)c3c(=O)cc(-c4ccccc4)oc3c2)(c2ccc(C)cc2)c2ccc(C)cc2)cc1 [3b] | -74.4 | -96.5 | -50 | -88.2 | -84.4 | -74.8 | -88 | -70.5 | -96.1 | -30.1 | -78.4 | -50.2 | -57.9 | -74.8 |
| COc1ccc([P+](CCCCOc2cc(O)c3c(=O)cc(-c4ccccc4)oc3c2)(c2ccc(OC)cc2)c2ccc(OC)cc2)cc1 [3c] | -84.9 | -93.9 | -92.6 | -68.1 | -59 | -56.8 | -64.2 | -71.7 | -78.9 | -90.6 | -51.1 | -67.6 | -45 | -74.4 |
| O=c1cc(-c2ccccc2)oc2cc(OCCCC[P+](c3ccc(F)cc3)(c3ccc(F)cc3)c3ccc(F)cc3)cc(O)c12 [3d] | -74.4 | -99.2 | -40.7 | -72 | -82.1 | -84.8 | -48.6 | -55.9 | -97.4 | -45.6 | -78 | -56.9 | -82.4 | -84 |
| O=c1cc(-c2ccccc2)oc2cc(OCCCC[P+](C3CCCCC3)(C3CCCCC3)C3CCCCC3)cc(O)c12 [3e] | -88 | -100 | -95.5 | -81.9 | -57 | -77 | -88.8 | -66.7 | -87.6 | -86.4 | -80.5 | -56.7 | -76.9 | -80 |
| COc1c(C)cc([P+](CCCCOc2cc(O)c3c(=O)cc(-c4ccccc4)oc3c2)(c2cc(C)c(OC)c(C)c2)c2cc(C)c(OC)c(C)c2)cc1C [3f] | -77.3 | -75.2 | -76.6 | -69.8 | -77.4 | -58 | -58.9 | -32.6 | -76.8 | -68.1 | -71 | -58.5 | -42.5 | -66.9 |
| Cc1ccccc1[P+](CCCCOc1cc(O)c2c(=O)cc(-c3ccccc3)oc2c1)(c1ccccc1C)c1ccccc1C [3g] | -98.5 | -97.9 | -97 | -99.1 | -97 | -95.4 | -94.7 | -96.5 | -97.4 | -95.9 | -99 | -99.4 | -98.5 | -98.7 |
| O=c1cc(-c2ccccc2)oc2cc(OCCCC[P+](c3ccccc3)(c3ccccc3)c3ccccn3)cc(O)c12 [3h] | -72.3 | -96.3 | -96 | -93.7 | -91.4 | -62.6 | -88 | -20.7 | -91.6 | -91.6 | -47.3 | -50.4 | -93.4 | -80.5 |
| O=c1cc(-c2ccccc2)oc2cc(O)cc(O)c12 [compound 2, 5,7-dihydroxyflavone, reference compound] | 89 | 92.8 | 80.7 | 97.6 | 85.8 | 103 | 81 | 102 | 86 | 95.2 | 89 | 86.8 | 102 | 91.2 |
